Data on 26 compounds can be found in patent publication US8969325B2, “TRPV1 antagonists” (AbbVie Inc., priority 2011, dated 2015).

In test [1] the target is T1, human TRPV1 (Homo sapiens (Human), UniProt Q8NER1). The test is described as follows: Acid Activation Assay (pH 5.0, intracellular Ca2+, FLIPR). Type of test: cell-based. The note with it: percentage of the maximal pH 5.0-induced response remaining; recombinant HEK293 hTRPV1 cells; maximum concentration tested 37.5 μM. An outline of the steps:
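HEK293 cells stably expressing recombinant hTRPV1, loaded with Calcium-4 dye 90-120 min at 25° C. Compounds added over a 12-point half-log range (top 37.5 μM), then pH 5.0 DPBS/MES challenge after 3 min; FLIPR peak fluorescence over baseline given as % of maximal pH 5.0 response.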

The target of test [2] is T1, human TRPV1. The test is described as follows: Capsaicin Activation Assay (intracellular Ca2+, FLIPR). Type of test: cell-based. As to conditions: recombinant HEK293 cells expressing hTRPV1, 50 nM capsaicin. An outline of the steps: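 Stably transfected HEK293 cells expressing human TRPV1 cDNA, plated the day before in poly-D-lysine plates. Compounds serially diluted from 10 mM DMSO stocks; intracellular Ca2+ fluorescence read on FLIPR at 1 to 5 second intervals.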

T1 sequence (Q8NER1 whole entry): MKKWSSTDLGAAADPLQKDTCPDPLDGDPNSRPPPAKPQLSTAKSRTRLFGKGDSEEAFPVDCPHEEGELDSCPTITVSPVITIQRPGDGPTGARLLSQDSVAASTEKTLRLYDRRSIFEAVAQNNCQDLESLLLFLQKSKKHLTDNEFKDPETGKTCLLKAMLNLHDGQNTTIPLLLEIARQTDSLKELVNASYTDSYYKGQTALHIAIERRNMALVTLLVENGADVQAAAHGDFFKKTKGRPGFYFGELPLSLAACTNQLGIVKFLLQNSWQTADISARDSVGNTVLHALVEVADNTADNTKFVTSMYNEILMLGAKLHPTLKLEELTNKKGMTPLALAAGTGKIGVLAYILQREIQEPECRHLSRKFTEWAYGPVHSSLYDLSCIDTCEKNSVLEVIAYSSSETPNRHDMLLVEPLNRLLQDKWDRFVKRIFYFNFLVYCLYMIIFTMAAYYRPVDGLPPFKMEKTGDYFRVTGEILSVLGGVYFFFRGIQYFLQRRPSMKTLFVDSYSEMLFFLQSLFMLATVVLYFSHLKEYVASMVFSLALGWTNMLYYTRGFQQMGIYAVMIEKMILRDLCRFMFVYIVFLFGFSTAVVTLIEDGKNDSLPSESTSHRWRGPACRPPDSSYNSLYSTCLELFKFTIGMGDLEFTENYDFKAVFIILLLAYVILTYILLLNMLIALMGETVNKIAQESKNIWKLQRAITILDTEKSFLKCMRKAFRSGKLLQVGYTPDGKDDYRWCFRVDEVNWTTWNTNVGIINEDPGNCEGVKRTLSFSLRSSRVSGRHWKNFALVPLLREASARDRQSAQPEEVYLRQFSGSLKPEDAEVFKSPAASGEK

In the case of `O=C1CCc2ccc(NC(=O)N[C@@H]3CCOc4c3cccc4C(F)(F)F)cc2N1` [Example 238, 1-(2-oxo-1,2,3,4-tetrahydroquinolin-7-yl)-3-[(4R)-8-(trifluoromethyl)-3,4-dihydro-2H-chromen-4-yl]urea], at human TRPV1 [1], the “human TRPV1 H^+ (max % remain)” value is 47%. Moreover, the IC50 – broadly, the point on the concentration scale where inhibition reaches its midpoint – at human TRPV1 [2] was 510 nM.

For the compound `O=C1CCc2ccc(NC(=O)N[C@@H]3CCOc4cc(C(F)(F)F)ccc43)cc2N1` [Example 239, 1-(2-oxo-1,2,3,4-tetrahydroquinolin-7-yl)-3-[(4R)-7-(trifluoromethyl)-3,4-dihydro-2H-chromen-4-yl]urea], at human TRPV1 [1], the “human TRPV1 H^+ (max % remain)” value amounted to 26%. For the same compound, on human TRPV1 [2], the IC50 is 47 nM.

For `O=C1CCc2ccc(NC(=O)N[C@@H]3CCc4cc(F)ccc43)cc2N1` [Example 240, 1-[(1R)-5-fluoro-2,3-dihydro-1H-inden-1-yl]-3-(2-oxo-1,2,3,4-tetrahydroquinolin-7-yl)urea], the “human TRPV1 H^+ (max % remain)” value at human TRPV1 [1] was found to be 25%. The IC50 at human TRPV1 [2] came out at 37 nM.

As to `O=C1CCc2ccc(NC(=O)N[C@H]3CC4(CCC4)Oc4ccc(F)cc43)cc2N1` [Example 242, 1-[(4S)-6-fluoro-3,4-dihydrospiro[chromene-2,1′-cyclobutan]-4-yl]-3-(2-oxo-1,2,3,4-tetrahydroquinolin-7-yl)urea], the “human TRPV1 H^+ (max % remain)” value at human TRPV1 [1] worked out at 30%. Besides, the 50% inhibitory concentration (IC50) at human TRPV1 [2] worked out at 86 nM.

Turning to `CC1(C)C[C@H](NC(=O)Nc2ccc3c(c2)NC(=O)CC3)c2cc(F)ccc2O1` [Example 243, 1-[(4S)-6-fluoro-2,2-dimethyl-3,4-dihydro-2H-chromen-4-yl]-3-(2-oxo-1,2,3,4-tetrahydroquinolin-7-yl)urea], on human TRPV1 [1], the “human TRPV1 H^+ (max % remain)” value turned out to be 45%. Moreover, the IC50 at human TRPV1 [2] was determined as 4900 nM.

Turning to `O=C1CCc2ccc(NC(=O)N[C@@H]3CC4(CCCC4)Oc4ccccc43)cc2N1` [Example 244, 1-[(4R)-3,4-dihydrospiro[chromene-2,1′-cyclopentan]-4-yl]-3-(2-oxo-1,2,3,4-tetrahydroquinolin-7-yl)urea], the “human TRPV1 H^+ (max % remain)” value at human TRPV1 [1] came out at 41%. Moreover, the IC50 at human TRPV1 [2] was 7100 nM.

As to `C[C@@]1(C(F)(F)F)C[C@@H](NC(=O)Nc2ccc3c(c2)NC(=O)CC3)c2ccccc2O1` [Example 245, 1-[(2S,4R)-2-methyl-2-(trifluoromethyl)-3,4-dihydro-2H-chromen-4-yl]-3-(2-oxo-1,2,3,4-tetrahydroquinolin-7-yl)urea], the “human TRPV1 H^+ (max % remain)” value on human TRPV1 [1] is 28%. Further, at human TRPV1 [2], the IC50 came out at 280 nM.

On to `C[C@@]1(CF)C[C@@H](NC(=O)Nc2ccc3c(c2)NC(=O)CC3)c2ccc(Cl)cc2O1` [Example 246, 1-[(2S,4R)-7-chloro-2-(fluoromethyl)-2-methyl-3,4-dihydro-2H-chromen-4-yl]-3-(2-oxo-1,2,3,4-tetrahydroquinolin-7-yl)urea], for which, at human TRPV1 [1], the “human TRPV1 H^+ (max % remain)” value is given as 33%. Also, at human TRPV1 [2], the IC50 is 130 nM.

Regarding `CC1(C)C[C@@H](NC(=O)Nc2ccc3c(c2)NC(=O)CC3)c2ccc(C(F)(F)F)nc2O1` [Example 247, 1-[(4R)-2,2-dimethyl-7-(trifluoromethyl)-3,4-dihydro-2H-pyrano[2,3-b]pyridin-4-yl]-3-(2-oxo-1,2,3,4-tetrahydroquinolin-7-yl)urea], on human TRPV1 [1], the “human TRPV1 H^+ (max % remain)” value turned out to be 18%. On human TRPV1 [2], the concentration for half-maximal inhibition (IC50) is 38 nM.

For `C[C@@]1(C(F)F)C[C@@H](NC(=O)Nc2ccc3c(c2)NC(=O)CC3)c2ccccc2O1` [Example 248, 1-[(2S,4R)-2-(difluoromethyl)-2-methyl-3,4-dihydro-2H-chromen-4-yl]-3-(2-oxo-1,2,3,4-tetrahydroquinolin-7-yl)urea], on human TRPV1 [1], the “human TRPV1 H^+ (max % remain)” value was found to be 24%. The IC50 on human TRPV1 [2] stood at 160 nM.

Regarding `C[C@]1(C(F)F)C[C@@H](NC(=O)Nc2ccc3c(c2)NC(=O)CC3)c2ccccc2O1` [Example 249, 1-[(2R,4R)-2-(difluoromethyl)-2-methyl-3,4-dihydro-2H-chromen-4-yl]-3-(2-oxo-1,2,3,4-tetrahydroquinolin-7-yl)urea], the “human TRPV1 H^+ (max % remain)” value on human TRPV1 [1] is 28%. The IC50 on human TRPV1 [2] was found to be 110 nM.

For `O=C1CCc2ccc(NC(=O)N[C@@H]3CC(CF)(CF)Oc4cc(F)ccc43)cc2N1` [Example 250, 1-[(4R)-7-fluoro-2,2-bis(fluoromethyl)-3,4-dihydro-2H-chromen-4-yl]-3-(2-oxo-1,2,3,4-tetrahydroquinolin-7-yl)urea], the “human TRPV1 H^+ (max % remain)” value at human TRPV1 [1] is recorded as 23%. Further, on human TRPV1 [2], the IC50 is 53 nM.

Regarding `O=C1CCc2ccc(NC(=S)N[C@@H]3CC(CF)(CF)Oc4cc(Cl)ccc43)cc2N1` [Example 252, 1-[(4R)-7-chloro-2,2-bis(fluoromethyl)-3,4-dihydro-2H-chromen-4-yl]-3-(2-oxo-1,2,3,4-tetrahydroquinolin-7-yl)thiourea], the “human TRPV1 H^+ (max % remain)” value at human TRPV1 [1] turned out to be 48%. Moreover, at human TRPV1 [2], the IC50 stood at 13 nM.

As for `CN1C(=O)CCc2ccc(NC(=O)N[C@@H]3CC(C)(C)Oc4cc(F)ccc43)cc21` [Example 253, 1-[(4R)-7-fluoro-2,2-dimethyl-3,4-dihydro-2H-chromen-4-yl]-3-(1-methyl-2-oxo-1,2,3,4-tetrahydroquinolin-7-yl)urea], at human TRPV1 [1], the “human TRPV1 H^+ (max % remain)” value is recorded as 31%. For the same compound, the IC50 on human TRPV1 [2] was 110 nM.

With `CN1C(=O)CCc2c(NC(=O)N[C@@H]3CC(CF)(CF)Oc4cc(Cl)ccc43)cccc21` [Example 254, 1-[(4R)-7-chloro-2,2-bis(fluoromethyl)-3,4-dihydro-2H-chromen-4-yl]-3-(1-methyl-2-oxo-1,2,3,4-tetrahydroquinolin-5-yl)urea], the “human TRPV1 H^+ (max % remain)” value on human TRPV1 [1] is on record as 73%. Besides, the IC50 at human TRPV1 [2] worked out at 130 nM.

As to `CN1C(=O)CCc2ccc(NC(=O)N[C@@H]3CC(CF)(CF)Oc4cc(Cl)ccc43)cc21` [Example 255, 1-[(4R)-7-chloro-2,2-bis(fluoromethyl)-3,4-dihydro-2H-chromen-4-yl]-3-(1-methyl-2-oxo-1,2,3,4-tetrahydroquinolin-7-yl)urea], on human TRPV1 [1], the “human TRPV1 H^+ (max % remain)” value is on record as 5%. In addition, the IC50 on human TRPV1 [2] turned out to be 20 nM.

With `CN1C(=O)CCc2ccc(NC(=O)N[C@@H]3CC(C)(C)Oc4c3cccc4C(F)(F)F)cc21` [Example 256, 1-[(4R)-2,2-dimethyl-8-(trifluoromethyl)-3,4-dihydro-2H-chromen-4-yl]-3-(1-methyl-2-oxo-1,2,3,4-tetrahydroquinolin-7-yl)urea], the “human TRPV1 H^+ (max % remain)” value on human TRPV1 [1] is reported as 89%. In addition, the IC50 on human TRPV1 [2] worked out at 390 nM.

`CN1C(=O)CCc2ccc(NC(=O)N[C@@H]3CC(C)(C)Oc4c(F)cccc43)cc21` [Example 257, 1-[(4R)-8-fluoro-2,2-dimethyl-3,4-dihydro-2H-chromen-4-yl]-3-(1-methyl-2-oxo-1,2,3,4-tetrahydroquinolin-7-yl)urea]: the “human TRPV1 H^+ (max % remain)” value at human TRPV1 [1] was determined as 72%. Besides, the half-maximal inhibitory concentration (IC50) at human TRPV1 [2] came out at 21 nM.

Turning to `CN1C(=O)CCc2ccc(NC(=O)N[C@@H]3CCOc4ccccc43)cc21` [Example 258, 1-[(4R)-3,4-dihydro-2H-chromen-4-yl]-3-(1-methyl-2-oxo-1,2,3,4-tetrahydroquinolin-7-yl)urea], the “human TRPV1 H^+ (max % remain)” value at human TRPV1 [1] was 72%. Besides, the IC50 on human TRPV1 [2] turned out to be 170 nM.

`CCC1(CC)C[C@@H](NC(=O)Nc2ccc3c(c2)N(C)C(=O)CC3)c2cccc(F)c2O1` [Example 259, 1-[(4R)-2,2-diethyl-8-fluoro-3,4-dihydro-2H-chromen-4-yl]-3-(1-methyl-2-oxo-1,2,3,4-tetrahydroquinolin-7-yl)urea]: the “human TRPV1 H^+ (max % remain)” value on human TRPV1 [1] is 89%. Also, on human TRPV1 [2], the IC50 worked out at 4700 nM.

For the compound `CCC1(CC)C[C@@H](NC(=O)Nc2ccc3c(c2)N(C)C(=O)CC3)c2ccccc2O1` [Example 260, 1-[(4R)-2,2-diethyl-3,4-dihydro-2H-chromen-4-yl]-3-(1-methyl-2-oxo-1,2,3,4-tetrahydroquinolin-7-yl)urea], the “human TRPV1 H^+ (max % remain)” value at human TRPV1 [1] turned out to be 61%. The IC50 at human TRPV1 [2] turned out to be 130 nM.

On to `CCC1(CC)C[C@@H](NC(=O)Nc2ccc3c(c2)N(C)C(=O)CC3)c2ccc(C(F)(F)F)cc2O1` [Example 261, 1-[(4R)-2,2-diethyl-7-(trifluoromethyl)-3,4-dihydro-2H-chromen-4-yl]-3-(1-methyl-2-oxo-1,2,3,4-tetrahydroquinolin-7-yl)urea], for which the “human TRPV1 H^+ (max % remain)” value at human TRPV1 [1] amounted to 70%. Besides, the IC50 on human TRPV1 [2] stood at 220 nM.

As for `CCC1(CC)C[C@@H](NC(=O)Nc2ccc3c(c2)N(C)C(=O)CC3)c2ccc(Cl)cc2O1` [Example 262, 1-[(4R)-7-chloro-2,2-diethyl-3,4-dihydro-2H-chromen-4-yl]-3-(1-methyl-2-oxo-1,2,3,4-tetrahydroquinolin-7-yl)urea], the “human TRPV1 H^+ (max % remain)” value on human TRPV1 [1] turned out to be 37%. Further, the 50% inhibitory concentration (IC50) at human TRPV1 [2] worked out at 460 nM.

Turning to `CN1C(=O)CCc2ccc(NC(=O)N[C@@H]3CC(CF)(CF)Oc4cc(C(F)(F)F)ccc43)cc21` [Example 263, 1-[(4R)-2,2-bis(fluoromethyl)-7-(trifluoromethyl)-3,4-dihydro-2H-chromen-4-yl]-3-(1-methyl-2-oxo-1,2,3,4-tetrahydroquinolin-7-yl)urea], the “human TRPV1 H^+ (max % remain)” value on human TRPV1 [1] is recorded as 51%. Also, the IC50 at human TRPV1 [2] was 500 nM.

For `CCC1(CC)C[C@@H](NC(=O)Nc2ccc3c(c2)N(C)C(=O)CC3)c2ccc(Cl)c(Cl)c2O1` [Example 264, 1-[(4R)-7,8-dichloro-2,2-diethyl-3,4-dihydro-2H-chromen-4-yl]-3-(1-methyl-2-oxo-1,2,3,4-tetrahydroquinolin-7-yl)urea], the “human TRPV1 H^+ (max % remain)” value at human TRPV1 [1] is given as 82%. On human TRPV1 [2], the IC50 was 170 nM.

Consider `CN1C(=O)CCc2ccc(NC(=O)N[C@@H]3CC(C)(C)Oc4cc(C(F)(F)F)ccc43)cc21` [Example 265, 1-[(4R)-2,2-dimethyl-7-(trifluoromethyl)-3,4-dihydro-2H-chromen-4-yl]-3-(1-methyl-2-oxo-1,2,3,4-tetrahydroquinolin-7-yl)urea], for which, at human TRPV1 [1], the “human TRPV1 H^+ (max % remain)” value is 53%. For the same compound, the IC50 on human TRPV1 [2] stood at 660 nM.
